The values that follow come from patent US20080221104A1, “SOLUBLE EPOXIDE HYDROLASE INHIBITORS FOR THE TREATMENT OF RHEUMATOID ARTHRITIS” (Arete Therapeutics, Inc., priority 2006, published 2008).

Series [1] is described as follows: Pharmacokinetic study in mice. The following applies: mouse plasma; for MRT: read-out: mean resident time (MRT). Type of series: in vivo. On the procedure: All animals were weighed prior to dose administration. […].
Blood (˜0.5 mL) was collected by cardiac puncture at sacrifice and transferred into vacutainer tubes containing sodium heparin at the time points outlined (See FIG. 3). After collection, the blood samples were centrifuged at approximately 1000×g at 2-8° C. for approximately 15 minutes. Each plasma specimen was collected, aliquoted into 2 microcentrifuge tubes, and stored at about −20° C. until analysis by LC/MS (liquid chromatography/mass spectrometry).
The quantitation method for pharmacokinetics is summarized as follows:
To prepare calibration standards for quantitation, the working standard was diluted 1 in 100 into rat plasma to 5 μg/mL (5 μL+495 μL), then diluted further with the same medium by 3-fold serial dilution. A total of seven dilutions were performed yielding eight calibration standards ranging from 2.29 to 5000 ng/mL. Calibration standards 3, 5 and 7 were used as the low, mid and high QC samples, respectively.
Calibration standards, QC samples and study samples were prepared for HPLC injection by precipitating plasma (25 μL) with 3× volumes (75 μL) of ice cold Internal Standard Solution. Following centrifugation at 6100 g for 30 minutes, 40 μL of each supernatant was transferred to a deep-well microplate and diluted with 200 μL of 0.2% formic acid in water.

Series [2] deals with DBA/1 mice. As to the kind of experiment: Collagen induced rheumatoid arthritis (RA) mouse model. Format: in vivo, mice (DBA/1). On the procedure: Mice were immunized with collagen as follows. Collagen (Bovine Type II, 0.05M in acetic acid) was emulsified with CFA (Complete Freund's Adjuvant) by mixing one volume of CFA with an equal amount of the collagen solution. Mixing was continued until a stable, stiff emulsion resulted. To ascertain the desired stability of the emulsion, 1 drop of emulsion was added into a water-filled beaker. The emulsion was considered stable if it remained in the water as a solid. For the collagen IP boost on day 21, the Bovine Type II collagen (Condrex, Seattle, Wash.) was thawed at 4° C. overnight and then mixed 1:1 with the PBS supplied. 200 μL was injected IP into each mouse. Four groups of 10 mice (40 total), aged 7-8 weeks were acclimated a minimum of 5 days prior to start of the study. Animals were housed 5 per cage in microisolators in a 12:12 light dark cycle (all work was done in a BioBubble Hood™). Standard maintenance mouse chow diet (Harlan Teklad 8640) was supplied. Water and food were given ad libitum. High CIA-susceptible DBA/1 mice were utilized which generally develop arthritis 3-5 weeks after immunization with Bovine type TI collagen. Fully developed arthritis, including red and swollen paws, was to be observed 3-5 days after the onset. […] Time of dosing was approximately the same each day following through the end of the study. The mice groups were fed as follows through the duration of the experiment: Group 1) Chow (Referred to as “Vehicle” in FIG. 1). Group 2) Chow (Positive Control-Dexamethasone (DEXA))-Dosed as appropriate. […] The dosing solutions were made on a twice weekly basis and stored at 4° C. between dosing. Measurements were taken twice weekly from boost and included: body weight measurement and Arthritic Score on a scale of 0 to 4. Arthritic score 0-4 (0=normal; 1=1-2 digit swollen and mildly red; 2=redness and swelling in mid-foot or ankle; 3=>3 paws and ankle joints swollen and very red); 4=all joints swollen and animal is not using the paw. At onset of arthritis paw measurements were taken with calipers. A baseline of caliper measurements was taken when all visual assessments were zero. Measurements were taken with an electronic caliper that entered measurements directly to an excel spreadsheet. The study was terminated on Day 42 from initial collagen injection. Cardiac blood was taken from each mouse and plasma prepared in EDTA within 15 min of collection. Plasma was frozen at −20° C. for future analysis of cytokines and eicosatrienoic acids. All left hind paws were removed and stored in formalin for future histology.

Series [3] addresses T1, sEH (Homo sapiens, UniProt P34913).
T1 sequence (P34913 1-555): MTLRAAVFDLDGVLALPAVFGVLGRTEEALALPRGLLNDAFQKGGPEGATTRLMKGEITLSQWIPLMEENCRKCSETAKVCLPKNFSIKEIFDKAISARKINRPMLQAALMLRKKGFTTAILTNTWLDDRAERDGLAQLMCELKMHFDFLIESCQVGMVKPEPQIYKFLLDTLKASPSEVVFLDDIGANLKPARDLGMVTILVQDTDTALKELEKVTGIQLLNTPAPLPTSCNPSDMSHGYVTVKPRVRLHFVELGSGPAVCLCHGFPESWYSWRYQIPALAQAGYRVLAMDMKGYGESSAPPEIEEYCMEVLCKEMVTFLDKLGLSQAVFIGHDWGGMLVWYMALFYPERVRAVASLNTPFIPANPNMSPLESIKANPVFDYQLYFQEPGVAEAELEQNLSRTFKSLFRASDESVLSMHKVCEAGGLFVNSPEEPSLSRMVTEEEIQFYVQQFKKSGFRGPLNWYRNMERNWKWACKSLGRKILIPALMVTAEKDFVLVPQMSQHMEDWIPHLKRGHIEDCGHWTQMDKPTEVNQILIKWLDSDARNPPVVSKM
As to the kind of experiment: sEH inhibition, fluorescent CMNPC substrate assay (IC50 determination). Format: biochemical. The following applies: for inhibition at 0.05 µM: tested at 50 nM. On the procedure:
The IC50s for each inhibitor were determined according to the following procedure:
The substrate for the reaction was:
Therefore, well A2 would refer to a well in the first row and second column of the plate.
In a black 96 well plate, all the wells are filled with 150 μL of buffer A (Buffer A: Bis/Tris HCl, 25 mM, pH 7.0 plus 0.1 mg/mL BSA). DMSO (2 microliters) was added in well A2 and A3, and then was added 2 μL of inhibitor solution in A1 and A4 through A12. […] The plate was incubated for 5 minutes in the plate reader at 30° C. During incubation, the working solution of substrate was prepared by mixing 3.68 mL of buffer A with 266 μL of 0.5 mM substrate solution. At t=0, 30 μL of working substrate solution was added and readings were started ([S]final: 5 μM). […] The velocities were used to analyze and calculate the IC50s.

In series [4] the test system is IL-6. Kind of series: LPS-induced cytokine production in mice (plasma IL-6). Type of series: in vivo, mice (C57-B6). The source says: Mouse Model of Inflammation Supporting Arthritis Model: Study of effect of Treatments on LPS-Induced Cytokine Production Mice (C57-B6 mice, ˜7-8 wks, male, Charles River Labs, 22-28 g) were quarantined and examined daily during 72 hr quarantine period. Any sign of clinical distress, disease, or injury were noted on a daily basis. […] Accepted mice were transferred to routine maintenance and housed at 5 per cage. Each mouse was identified by an ear tag. The vehicle or pharmaceutically acceptable carrier for test compounds was 20% hydroxypropyl-beta-cyclodextrin for subcutaneous and interperoneal routes (Groups 6-9). For Groups 1-5, the “Vehicle” as used in this study is 0.1% Tween 80 and 1% carboxymethylcellulose (CMC). The 0.1% Tween 80 and 1% carboxymethylcellulose (CMC) was the Vehicle used in the mice in Groups 1 and 2. The compounds were administered with pre-formulated material at a dose of 0.2 mL for 25 g mouse (8.0 mL per kg body weight). […] At the initiation of the study (T=0) animals were weighed and administered with test material or Vehicle. Five 5 mice per treatment per time point group were completed. At the first time point (T=24 hours) the animals were administered with test material or Vehicle again as above. [0.2 mL for 25 g mouse (8.0 mL per kg body weight)] [table] At the time point T=25 hour, animals were administered 2 mL/kg of an LPS solution (5 mg/mL, lipopolysaccharide from Escherichia coli 0111:B4; dissolved in sterile PBS) or vehicle by intraperitoneal route. At this time point, Group 1 mice received Vehicle only as the non-LPS control and Groups 2 through 9 mice received LPS and Vehicle (Group 2) or Test Materials. At the time point T=30 hour, mice in Groups 1 through 9 were anesthetized and exsanguinated into EDTA-treated microtainer tubes. […] The plasma samples was stored at −20° C. until testing. Plasma IL-6 was measured by Luminex cytokine multiplex measurements using beads supplied by Linco.

Setting [5] is: 50 mg/kg PO once a day (QD), Day 20 to Day 27.
[6] abbreviates: 50 mg/kg PO twice a day (BID), Day 28 to Day 42.

Molecules are shown by their SMILES. pIC50: −log10 of the molar value.

Consider `O=C(Nc1ccc(C(F)(F)F)cc1)Nc1cccc(C(=O)N2CCOCC2)c1` [Compound 1, 1-[3-(morpholine-4-carbonyl)-phenyl]-3-(4-trifluoromethyl-phenyl)-urea], for which, in series [1], the highest level (Cmax) was 9920 ng/mL; the “area under the curve (AUC), fold higher than COMPOUND #2” value is “over 20 fold”; the MRT turned out to be 5.6 h. Moreover, the “arthritis score vs Vehicle” value in series [2] (setting [5]) is listed as “no significant difference from Vehicle”. Moreover, the “arthritis score vs Vehicle” value in series [2] (setting [6]) is recorded as “significantly decreased the arthritic score”. The pIC50 in series [3] (read-out: IC50 against sEH) is 8.05. The compound further yielded an inhibition at 0.05 µM in series [3] of 82%. The “inhibition of IL-6 release in response to LPS” value (shortened to “inhibition of IL-6 release”) in series [4] (administered SC, 50 mg/kg) is 94%. The “inhibition of IL-6 release” value in series [4] (given orally, 50 mg/kg) came to 55%.

Turning to `CC(=O)N1CCC(NC(=O)NC23CC4CC(CC(C4)C2)C3)CC1` [Compound 2, 1-(1-acetylpiperidn-4-yl)-3-(adamant-1-yl) urea], in series [1], the Cmax was 6490 ng/mL. The MRT in series [1] was 1.3 h. Also, the “arthritis score vs Vehicle” value in series [2] (setting [5]) and in series [2] (setting [6]) was “not significantly different from Vehicle treated animals” in each case. Besides, the “inhibition of IL-6 release” value was determined as 51% in series [4] (administered SC, 50 mg/kg) and 51% in series [4] (given orally, 50 mg/kg).

In series [3], `CS(=O)(=O)N1CCC(NC(=O)NC23CC4CC(CC(C4)C2)C3)CC1` [Compound 5, 1-[1-(methylsulfonyl)piperidin-4-yl]-3-(adamant-1-yl) urea] returned an inhibition at 0.05 µM of 94%.

As for `Fc1ccc(-c2nc3n(c2-c2ccncc2)CCS3)cc1` [SKF86002, reference compound], in series [4] (PO, 100 mg/kg, relative to the vehicle control), the “inhibition of IL-6 release” value is 66%.
